{
  "source": "the supplement of paper PMC11208160",
  "data": [
    {"experiment": "recombinant barcode read abundance after kanamycin selection (control-corrected) (log10(CPM+1)); higher = more efficient recombination; sequences stand for … in AGTGCAGAGAAAATCGGCCAGTTTTCTCTGCCTGCAGTCCGCATGCCGT…AGATTTATGCAGCGGACTGCCTTTCTCCCAAAGTGATAAACCGGACAGTATCATGGACCGGTTTTCCCGGTAATCCGTATTTGCAAGGTTGGTTTCACT; site = the 11-nt target", "summary_of_the_method": "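In a pooled screen in E. coli, targets were paired with target-binding loops of the IS621 bridge RNA. Each oligo carried a promoter, a target, a barcode and the first 104 bridge RNA bases driven by J23119, and was Gibson-cloned into a vector holding the remaining 73 bp and a T7-inducible recombinase before co-electroporation with a donor plasmid. Duplicate platings went onto chloramphenicol/ampicillin LB agar as the control or onto chloramphenicol/ampicillin/kanamycin with 0.1 mM IPTG. Recombination efficiency is the averaged, control-corrected count per million of barcodes at recombinant junctions, given as log10(CPM+1).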", "values": [
      {"sequence": "TAGAGAGCTTGGGTTCTAACCTGTTGCAG (site TAGGGAGCTAT)", "recombinant barcode read abundance (log10)": 0.265},
      {"sequence": "TAGAGCCCTTGGGTTCTAACCTGTTGCGG (site TAGAGCCCTCC)", "recombinant barcode read abundance (log10)": 0.953},
      {"sequence": "TAGAGCCCTTGGGTTCTAACCTGTTGCGG (site TCGAGGCCTCC)", "recombinant barcode read abundance (log10)": 0.0902},
      {"sequence": "TAGATCCCTTGGGTTCTAACCTGTTGCTT (site TAGAACCCTAA)", "recombinant barcode read abundance (log10)": 0.245},
      {"sequence": "TAGATCCCTTGGGTTCTAACCTGTTGCTT (site TAGATCCCTAA)", "recombinant barcode read abundance (log10)": 0.528},
      {"sequence": "TAGCACCCTTGGGTTCTAACCTGTTGCCG (site TAGCACCCTAG)", "recombinant barcode read abundance (log10)": 0.287},
      {"sequence": "TAGCACCCTTGGGTTCTAACCTGTTGCCG (site TAGCACCCTCG)", "recombinant barcode read abundance (log10)": 1.19},
      {"sequence": "TAGCACCCTTGGGTTCTAACCTGTTGCCG (site TAGCACCCTGG)", "recombinant barcode read abundance (log10)": 0.239},
      {"sequence": "TAGCACCCTTGGGTTCTAACCTGTTGCCG (site TAGCACCCTTG)", "recombinant barcode read abundance (log10)": 0.356},
      {"sequence": "TAGCAGTCTTGGGTTCTAACCTGTTGCGC (site CGCGCCACTAG)", "recombinant barcode read abundance (log10)": 0.251},
      {"sequence": "TAGCAGTCTTGGGTTCTAACCTGTTGCGC (site TAGCAGTCTGC)", "recombinant barcode read abundance (log10)": 2.05},
      {"sequence": "TAGCATGCTTGGGTTCTAACCTGTTGCAA (site TAGCATGCTAT)", "recombinant barcode read abundance (log10)": 0.382},
      {"sequence": "TAGCATGCTTGGGTTCTAACCTGTTGCAA (site TAGCATGCTCT)", "recombinant barcode read abundance (log10)": 0.597},
      {"sequence": "TAGCATGCTTGGGTTCTAACCTGTTGCAA (site TAGCATGCTGT)", "recombinant barcode read abundance (log10)": 0.115},
      {"sequence": "TAGCATGCTTGGGTTCTAACCTGTTGCAA (site TAGCATGCTTT)", "recombinant barcode read abundance (log10)": 0.324},
      {"sequence": "TAGCATGCTTGGGTTCTAACCTGTTGCAC (site TAGCATGCTAT)", "recombinant barcode read abundance (log10)": 0.677},
      {"sequence": "TAGCATGCTTGGGTTCTAACCTGTTGCAC (site TAGCATGCTCT)", "recombinant barcode read abundance (log10)": 0.203},
      {"sequence": "TAGCATGCTTGGGTTCTAACCTGTTGCAC (site TAGCATGCTGT)", "recombinant barcode read abundance (log10)": 0.978},
      {"sequence": "TAGCATGCTTGGGTTCTAACCTGTTGCAC (site TAGCATGCTTT)", "recombinant barcode read abundance (log10)": 0.306},
      {"sequence": "TAGCCTTCTTGGGTTCTAACCTGTTGCTA (site TAGCCTTCTCA)", "recombinant barcode read abundance (log10)": 0.0251},
      {"sequence": "TAGCCTTCTTGGGTTCTAACCTGTTGCTA (site TAGCCTTCTTA)", "recombinant barcode read abundance (log10)": 0.129},
      {"sequence": "TAGCGGCCTTGGGTTCTAACCTGTTGCGG (site CCAGTATCTAT)", "recombinant barcode read abundance (log10)": 0.453},
      {"sequence": "TAGCGGCCTTGGGTTCTAACCTGTTGCGG (site TAGCGGCCTCC)", "recombinant barcode read abundance (log10)": 2.23},
      {"sequence": "TAGGAAACTTGGGTTCTAACCTGTTGCGT (site TAGGAAACTAC)", "recombinant barcode read abundance (log10)": 2.98},
      {"sequence": "TAGGAAACTTGGGTTCTAACCTGTTGCGT (site TAGGACACTAC)", "recombinant barcode read abundance (log10)": 0.0791},
      {"sequence": "TAGGAAACTTGGGTTCTAACCTGTTGCGT (site TAGGAGACTAC)", "recombinant barcode read abundance (log10)": 0.781},
      {"sequence": "TAGGAAACTTGGGTTCTAACCTGTTGCGT (site TAGGATACTAC)", "recombinant barcode read abundance (log10)": 0.447},
      {"sequence": "TAGGCGACTTGGGTTCTAACCTGTTGCTA (site TAGGCGACTTA)", "recombinant barcode read abundance (log10)": 0.454},
      {"sequence": "TAGGCGACTTGGGTTCTAACCTGTTGCTA (site TAGGGCACTTA)", "recombinant barcode read abundance (log10)": 0.156},
      {"sequence": "TAGGCGACTTGGGTTCTAACCTGTTGCTT (site TAGACGACTAA)", "recombinant barcode read abundance (log10)": 0.177},
      {"sequence": "TAGGCGACTTGGGTTCTAACCTGTTGCTT (site TAGCCGACTAA)", "recombinant barcode read abundance (log10)": 0.182},
      {"sequence": "TAGGCGACTTGGGTTCTAACCTGTTGCTT (site TAGGCGACTAA)", "recombinant barcode read abundance (log10)": 0.395},
      {"sequence": "TAGGCGACTTGGGTTCTAACCTGTTGCTT (site TAGTCGACTAA)", "recombinant barcode read abundance (log10)": 0},
      {"sequence": "TAGGCGTCTTGGGTTCTAACCTGTTGCAG (site TAGCCTTCTCT)", "recombinant barcode read abundance (log10)": 0.0835},
      {"sequence": "TAGGCGTCTTGGGTTCTAACCTGTTGCAG (site TAGGCGTCTCT)", "recombinant barcode read abundance (log10)": 2.27},
      {"sequence": "TAGGCTCCTTGGGTTCTAACCTGTTGCAC (site TAGGCTCCTAT)", "recombinant barcode read abundance (log10)": 0.2},
      {"sequence": "TAGGCTCCTTGGGTTCTAACCTGTTGCAC (site TAGGCTCCTCT)", "recombinant barcode read abundance (log10)": 0.0904},
      {"sequence": "TAGGCTCCTTGGGTTCTAACCTGTTGCAC (site TAGGCTCCTGT)", "recombinant barcode read abundance (log10)": 1.94},
      {"sequence": "TAGGCTCCTTGGGTTCTAACCTGTTGCAC (site TAGGCTCCTTT)", "recombinant barcode read abundance (log10)": 0.726},
      {"sequence": "TAGGCTCCTTGGGTTCTAACCTGTTGCTT (site TACGGTCCTAA)", "recombinant barcode read abundance (log10)": 0.0632},
      {"sequence": "TAGGCTCCTTGGGTTCTAACCTGTTGCTT (site TAGGCTCCTAA)", "recombinant barcode read abundance (log10)": 0.277},
      {"sequence": "TAGGCTGCTTGGGTTCTAACCTGTTGCAT (site TAGGCTGCTAT)", "recombinant barcode read abundance (log10)": 0.882},
      {"sequence": "TAGGCTGCTTGGGTTCTAACCTGTTGCAT (site TTGGGTGCTAT)", "recombinant barcode read abundance (log10)": 0.0414}
    ]}
  ]
}
